Measurements as given in patent publication EP0216028A2, “Use of anthranilic-acid derivatives as anthelmintic medicaments” (HOECHST AKTIENGESELLSCHAFT, priority 1985, dated 1987).
Read-outs that look alike come from different tables or passages of the source.

Columns and labels:
[1] = system: Leberegel (Fasciola hepatica); test: Chemotherapeutic test in sheep infected with liver fluke (egg count reduction / worm burden); assay type: in vivo; conditions: Wirtstier: Schaf, p.o.; for minimal effective dose: Fasciola hepatica, po, read-out: Dosis (>90% Reduktion der Wurmbürde); for Chemotherapeut. Index: quotient of Dosis tolerata maxima and Dosis curativa minima
From the text: (§1) Zur Feststellung der anthelminthischen Wirkung der Verbindungen der Formel I wurden chemotherapeutische Untersuchungen an ca. 25-30 kg schweren Schaflämmern ausgeführt, die entweder mit Metazerkarien von Fasciola hepatica oder mit Larven von Magen-Darm-Strongyliden, vornehmlich Haemonchus contortus und Trichostongylus colubriformis, oral infiziert worden waren. Nach Ablauf der Präpatenzperiode (Zeit zwischen Infektion und Geschlechtsreife der Parasiten mit beginnender Ausscheidung von Eiern oder Larven) wurde der Parasitenbefall durch Kotuntersuchungen gesichert. […] Unmittelbar danach wurde die Behandlung der Schafe (im allgemeinen 3 - 4 Tiere pro Wirkstoff, mindestens aber 2) vorgenommen. Den Tieren wurde oral oder parenteral eine Suspension von unterschiedlicher Wirkstoffmenge in jeweils 10 ml einer 1%igen Carboxymethylcellulose-Suspension appliziert. Jeweils am 7., 14. und 28. Tag nach der Behandlung wurde wiederum nach den vorstehend angegebenen Verfahren die Eizahl pro Gramm Kot ermittelt und ihre prozentuale Abnahme im Vergleich zum Ausgangswert vor der Behandlung errechnet. Mit einigen Verbindungen wurden außerdem beim Fasciola-Befall noch eine zusätzliche Prüftechnik angewandt: Nach Abschluß der Präpatenzperiode wurde bei Fasciola-positiven Schafen ein künstlicher Gallengang geschaffen, der am Ausgang der Gallenblase ein Sieb enthielt, so daß die nach der Behandlung abgetöteten Leberegel in der Gallenblase aufgefangen werden konnten. Vier bis sieben Tage nach der Behandlung wurden die so operierten und dann behandelten Schafe getötet, die abgetöteten Leberegel in der Gallenblase sowie noch eventuell in der Leber vorhandene lebende Leberegel gezählt und von der gesamten Wurmbürde der Prozentsatz der abgetöteten Parasiten berechnet.
(§2) Der chemotherapeutische Index gibt den Quotienten aus Do- sis tolerata maxima und Dosis curativa minima an.

[2] = system: Magen-Darm-Würmer(Ostertagia, Haemonchur, Trichostrongylus, Cooperia, jeweils verschiedene Spezies); test: Chemotherapeutic test in sheep infected with gastrointestinal worms (egg count reduction / worm burden); assay type: in vivo; conditions: Tabelle 2, Wirtstier: Schaf; for Chemotherapeut. Index: quotient of Dosis tolerata maxima and Dosis curativa minima; for minimal effective dose: Trichostrongylus, read-out: Dosis (>90% Reduktion der Wurmbürde)
From the text: as §1, §2

[3] = Tabelle 3 (comparison of isomers)
[4] = Tabelle 1, minimum curative dose

Structure (SMILES) | minimal effective dose [1, 3] | Chemotherapeut. Index [1, 3] | minimal effective dose [1, 4] | Chemotherapeut. Index ([1]; Tabelle 1) | further results
O=C(Nc1ccc(Cl)cc1)c1ccc(Cl)cc1NS(=O)(=O)c1ccc(Cl)cc1 [V1, 4-Chlor-2-[(4-chlor-phenylsulfonyl)-amino]-benzoesäure-(4-chloranilid), reference compound] | 30 mg/kg | 2 |  |  | 
O=C(Nc1ccc(Cl)cc1)c1ccc(NS(=O)(=O)c2ccc(Cl)cc2)cc1Cl [V2, reference compound] | 20 mg/kg | 3 |  |  | 
O=C(Nc1ccc(Cl)cc1)c1ccc(NS(=O)(=O)c2ccc(Cl)cc2)c(Cl)c1 [V3, reference compound] | 30 mg/kg | 2 |  |  | 
O=C(Nc1ccc(Cl)cc1)c1ccc(Cl)c(NS(=O)(=O)c2ccc(Cl)cc2)c1 [V4, 4-Chlor-3-[(4-Chlorphenylsulfonyl)-amino]-benzoesäure-(4-chlor-anilid), reference compound] | 15 mg/kg | 4 |  |  | 
O=C(Nc1ccc(Cl)cc1)c1cc(NS(=O)(=O)c2ccc(Cl)cc2)ccc1Cl [V5, reference compound] | 30 mg/kg | 2 |  |  | 
O=C(Nc1ccc(Cl)c(Cl)c1)c1ccc(Cl)cc1NS(=O)(=O)c1ccc(Cl)cc1 [V6, 4-Chlor-2-[(4-chlor-phenylsulfonyl)-amino]-benzoesäure-(3,4-dichlor-anilid), reference compound] | 30 mg/kg | 2 |  |  | 
O=C(Nc1ccc(F)cc1)c1cc(NS(=O)(=O)c2ccc(Cl)cc2)ccc1Cl [V7, 2-Chlor-5-[(4-chlor-phenylsulfonyl)-amino]-benzoesäure-(4-fluor-anilid), reference compound] | 30 mg/kg | 2 |  |  | 
O=C(Nc1ccc(Cl)cc1)c1ccc(NS(=O)(=O)c2ccc(Cl)cc2)cc1Br [V8, reference compound] | 30 mg/kg | 2 |  |  | 
O=C(Nc1ccc(Cl)cc1)c1ccc(Br)cc1NS(=O)(=O)c1ccc(Cl)cc1 [V9, 4-Brom-2-[(4-chlor-phenylsulfonyl)-amino]-benzoesäure-(4-chlor-anilid), reference compound] | 20 mg/kg | 3 |  |  | 
O=C(Nc1ccc(Cl)c(Cl)c1)c1ccc(NS(=O)(=O)c2ccc(Cl)cc2)cc1Cl [V10, reference compound] | 10 mg/kg | 5 |  |  | 
O=C(Nc1ccc(Cl)cc1)c1cc(Cl)ccc1NS(=O)(=O)c1ccc(Cl)cc1 [Verbindung 1] | 1.5 mg/kg | über 25 | 1.5 mg/kg | über 25 | 
O=C(Nc1ccc(Cl)cc1Cl)c1cc(Cl)ccc1NS(=O)(=O)c1ccc(Cl)cc1 [Verbindung 2, 5-Chlor-2-[(4-chlor-phenylsulfonyl)-amino]-benzoesäure-(2,4-dichlor-anilid)] |  |  | 7.5 mg/kg | 8 | 
O=C(Nc1ccc(Cl)c(Cl)c1)c1cc(Cl)ccc1NS(=O)(=O)c1ccc(Cl)cc1 [Verbindung 3, 5-Chlor-2-t(4-chlor-phenylsulfonyl)-aminoJ-benzoesäure-(3,4-dichloranilid)] | 5 mg/kg | 10 | 5 mg/kg | 10 | 
O=C(Nc1ccc(F)cc1)c1cc(Cl)ccc1NS(=O)(=O)c1ccc(Cl)cc1 [Verbindung 4] |  | 20 | 2.5 mg/kg | 20 | Dosis (>90% Reduktion der Wurmbürde) [1, 3]: 2,5 mg/kg Körpergewicht
O=C(Nc1ccc(Br)cc1)c1cc(Cl)ccc1NS(=O)(=O)c1ccc(Cl)cc1 [Verbindung 5, 5-Chlor[(4-chlor-phenylsulfonyl)-amino]-benzoesäure-(4-brom-anilid)] |  |  | 5 mg/kg | 10 | 
CN(C(=O)c1cc(Cl)ccc1NS(=O)(=O)c1ccc(Cl)cc1)c1ccc(Cl)cc1 [Verbindung 6] |  |  |  |  | Chemotherapeut. Index ([2]; p.o.): 5; minimal effective dose ([2]; po, p.o.): 10 mg/kg
O=C(Nc1ccc(Cl)cc1)c1cc(Br)ccc1NS(=O)(=O)c1ccc(Cl)cc1 [Verbindung 9, 5-Brom-2-[(4-chlor-phenylsulfonyl)-amino]-benzoesäure-(4-chlor-anilid)] | 2.5 mg/kg | 20 | 5 mg/kg | 10 | 

Structure (SMILES) | minimal effective dose [1, 3] | Chemotherapeut. Index [1, 3] | minimal effective dose [1, 4] | Chemotherapeut. Index ([1]; Tabelle 1) | further results
O=C(Nc1ccc(Cl)cc1)c1cc(Cl)c(Cl)cc1NS(=O)(=O)c1ccc(Cl)cc1 [Verbindung 12, 4,5-Dichlor-2-[(4-chlor-phenylsulfonyl)-amino]-benzoesäure-(4-chlor-anilid)] |  |  | 5 mg/kg | 10 | 
O=C(Nc1ccc(F)cc1)c1cc(Cl)cc(Cl)c1NS(=O)(=O)c1ccc(Cl)cc1 [Verbindung 14, 3,5-Dichlor-2-[(4-chlor-phenylsulfonyl)-amino]-benzoesäure-(4-fluor-anilid)] |  |  | 7.5 mg/kg | 5 | 
CCCCCCCCCCCCNC(=O)c1cc(Cl)cc(Cl)c1NS(=O)(=O)c1ccc(Cl)cc1 [Verbindung 16] |  |  |  |  | Chemotherapeut. Index ([2]; p.o.): 10; minimal effective dose ([2]; po, p.o.): 5 mg/kg
CCCCCCCCCCCCNC(=O)c1cc(Cl)ccc1NS(=O)(=O)c1ccc(Cl)cc1 [Verbindung 17, 5-Chlor-2-[(4-chlor-phenylsulfonyl)-amino]-benzoesäure-dodecylamid] |  |  | 2.5 mg/kg | 20 | 
CCCCCCCCCCCCN(C)C(=O)c1cc(Cl)ccc1NS(=O)(=O)c1ccc(Cl)cc1 [Verbindung 19, 5-Chlor-2-[(4-chlor-phenylsulfonyl)-amino]-benzoesäure-(N-methyl-dodecylamid)] |  |  | 7.5 mg/kg | 5 | 
O=C(Nc1ccc(Br)cc1)c1cc(Cl)ccc1NS(=O)(=O)c1ccc(Br)cc1 [Verbindung 21] |  |  |  |  | Chemotherapeut. Index ([2]; s.c.): über 6; minimal effective dose ([2]; sc, s.c.): 5 mg/kg
O=C(Nc1ccc(Cl)cc1)c1cc(Cl)ccc1NS(=O)(=O)c1ccc(F)cc1 [Verbindung 22, 5-Chlor-2-[(4-fluor-phenylsulfonyl)-amino]-benzoesäure-(4-chloranilid)] |  |  |  |  | Chemotherapeut. Index ([2]; p.o.): 5; minimal effective dose ([2]; po, p.o.): 10 mg/kg
O=C(Nc1ccc(Cl)cc1)c1cc(Cl)ccc1NS(=O)(=O)c1ccc(Cl)cc1Cl [Verbindung 25, 5-Chlor-2-[(2,4-dichlor-phenylsulfonyl)-amino]-benzoesäure-(4-chloranilid)] |  |  | 7.5 mg/kg | 6 | 
O=C(Nc1ccc(Cl)cc1)c1cc(Cl)ccc1NS(=O)(=O)c1ccc(Cl)c(Cl)c1 [Verbindung 26, 5-Chlor-2-[(3,4-dichlor-phenylsulfonyl)-amino]-benzoesäure-(4-chlor-anilid)] |  | über 25 | 1 mg/kg | über 25 | Dosis (>90% Reduktion der Wurmbürde) [1, 3]: 1 mg/kg Körpergewicht
CCCCCCCCNC(=O)c1cc(Cl)ccc1NS(=O)(=O)c1ccc(Cl)c(Cl)c1 [Verbindung 27, 5-Chlor-2-[(3,4-dichlor-phenylsulfonyl)-amino]-benzoesäure-octylamid] |  |  | 7.5 mg/kg | 8 | 
CCN(C(=O)c1cc(Cl)ccc1NS(=O)(=O)c1ccc(Cl)c(Cl)c1)c1ccc(Cl)cc1 [Verbindung 29] |  |  | 1.5 mg/kg | über 25 | 
CN(c1ccc(Cl)cc1C(=O)Nc1ccc(Cl)cc1)S(=O)(=O)c1ccc(Cl)c(Cl)c1 [Verbindung 30, 5-Chlor-2-[(3,4-dichlor-phenylsulfonyl)-methylamino]-benzoesäure-(4-chlor-anilid)] |  |  | 5 mg/kg | 10 | 
CCCCCCCCCCCCCCCCCCNC(=O)c1cc(Cl)ccc1NS(=O)(=O)c1ccc(Cl)c(Cl)c1 [Verbindung 32, 5-Chlor-2-[(3,4-dichlor-phenyl-sulfonyl)-amino]-benzoesäure-octa-decylamid] |  |  | 5 mg/kg | 10 | 
CCCCCCCCCCCCN(C)C(=O)c1cc(Cl)ccc1NS(=O)(=O)c1ccc(Cl)c(Cl)c1 [Verbindung 33, 5-Chlor-2-[(3,4-dichlor-phenylsulfonyl)-amino]-benzoesäure-(N-methyl-dodecylamid)] |  |  |  |  | Chemotherapeut. Index ([2]; s.c.): über 6; minimal effective dose ([2]; sc, s.c.): 5 mg/kg
O=C(Nc1ccc(C(F)(F)F)cc1)c1cc(Cl)ccc1NS(=O)(=O)c1ccc(Cl)c(Cl)c1 [Verbindung 34, 5-Chlor-2-[(3,4-dichlor-phenylsulfonyl)-amino]-benzoesäure-(4-trifluormethyl-anilid)] |  |  | 2.5 mg/kg | 20 | 
CCS(=O)(=O)c1ccc(NS(=O)(=O)c2ccc(Cl)c(Cl)c2)c(C(=O)Nc2ccc(Cl)cc2)c1 [Verbindung 40] |  |  | 5 mg/kg | 10 | 
